For one data set, the species on record is Homo sapiens. The data set is described as follows: Selectivity index, ratio of IC50 for human MAO-A to IC50 for human MAO-B.
In data set [1] the target is T1, Amine oxidase [flavin-containing] A (Homo sapiens, UniProt P21397).
T1 sequence (P21397 whole entry): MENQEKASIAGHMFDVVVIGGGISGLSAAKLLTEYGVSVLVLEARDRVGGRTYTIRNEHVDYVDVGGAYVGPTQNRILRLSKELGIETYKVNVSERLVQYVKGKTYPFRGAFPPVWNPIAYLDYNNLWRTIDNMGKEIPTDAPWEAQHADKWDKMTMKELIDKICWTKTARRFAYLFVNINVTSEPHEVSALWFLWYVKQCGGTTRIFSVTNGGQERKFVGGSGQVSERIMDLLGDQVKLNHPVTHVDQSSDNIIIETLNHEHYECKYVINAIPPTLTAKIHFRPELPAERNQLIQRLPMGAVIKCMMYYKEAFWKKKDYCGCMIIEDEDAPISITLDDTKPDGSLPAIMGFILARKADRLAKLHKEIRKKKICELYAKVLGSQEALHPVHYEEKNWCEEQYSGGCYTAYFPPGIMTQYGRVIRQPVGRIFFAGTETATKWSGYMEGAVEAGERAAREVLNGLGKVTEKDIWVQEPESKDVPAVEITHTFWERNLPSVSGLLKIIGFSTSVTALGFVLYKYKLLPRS
The data set is described as follows: Inhibition of human recombinant microsomal MAO-A expressed in baculovirus-infected insect BTI-TN-5B1-4 cells at 100 uM assessed as p-tyramine conversion to H2O2 by fluorescence assay. The settings on record: for inhibition at 100 µM: BTI-TN-5B1-4, human; for inhibition (INH): human, bti-tn-5b1-4, 100 µM.

Data set [2] deals with T2, Amine oxidase [flavin-containing] B (Homo sapiens, UniProt P27338).
T2 sequence (P27338 whole entry): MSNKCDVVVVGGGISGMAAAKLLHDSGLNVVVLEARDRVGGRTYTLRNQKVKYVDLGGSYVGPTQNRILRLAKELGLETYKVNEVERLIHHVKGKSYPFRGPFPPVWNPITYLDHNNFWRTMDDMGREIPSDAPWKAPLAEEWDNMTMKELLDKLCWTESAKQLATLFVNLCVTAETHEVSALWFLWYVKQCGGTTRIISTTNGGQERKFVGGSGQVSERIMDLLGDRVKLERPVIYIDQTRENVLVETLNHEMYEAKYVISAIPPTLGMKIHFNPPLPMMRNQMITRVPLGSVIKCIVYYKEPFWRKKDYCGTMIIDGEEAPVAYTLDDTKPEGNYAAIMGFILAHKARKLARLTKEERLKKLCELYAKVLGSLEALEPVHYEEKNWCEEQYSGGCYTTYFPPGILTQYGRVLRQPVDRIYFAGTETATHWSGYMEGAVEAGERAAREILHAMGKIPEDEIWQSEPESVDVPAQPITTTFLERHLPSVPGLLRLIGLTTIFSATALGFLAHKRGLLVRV
The data set can be described thus: biochemical. The data set is classed as cell-based, BTI-TN-5B1-4.
Description: Inhibition of human recombinant microsomal MAO-B expressed in baculovirus-infected insect BTI-TN-5B1-4 cells assessed as p-tyramine conversion to H2O2 by fluorescence assay

The target in data set [3] is T1, Amine oxidase [flavin-containing] A. The data set can be described thus: Inhibition of human recombinant microsomal MAO-A expressed in baculovirus-infected insect BTI-TN-5B1-4 cells assessed as p-tyramine conversion to H2O2 by fluorescence assay.
In data set [4] the target is T2, Amine oxidase [flavin-containing] B. The data set is described as follows: Ratio of clorgyline IC50 to compound IC50 for human MAO-B.
Data set [5] has the same target. The data set can be described thus: Ratio of selegiline IC50 to compound IC50 for human MAO-B.
For data set [6], the target named is Amine oxidase [flavin-containing] B (Homo sapiens) (UniProt P27338). The data set can be described thus: Ratio of iproniazid IC50 to compound IC50 for human MAO-B.
Data set [7] has the same target. The data set can be described thus: Ratio of moclobemide IC50 to compound IC50 for human MAO-B.
For data set [8], the target named is T1, Amine oxidase [flavin-containing] A. The data set can be described thus: Ratio of clorgyline IC50 to compound IC50 for human MAO-A.
For data set [9], the target named is Amine oxidase [flavin-containing] B (Homo sapiens) (UniProt P27338). The data set can be described thus: Ratio of selegiline IC50 to compound IC50 for human MAO-B.
For data set [10], the target named is T2, Amine oxidase [flavin-containing] B. The data set can be described thus: Inhibition of human recombinant microsomal MAO-B expressed in baculovirus-infected insect BTI-TN-5B1-4 cells at 100 uM assessed as p-tyramine conversion to H2O2 by fluorescence assay. To be noted: for inhibition at 100 µM: BTI-TN-5B1-4, human; for inhibition (INH): human, bti-tn-5b1-4, 100 µM.

For the compound `CN1N=C(c2ccc(O)cc2)CC1c1ccccc1F` (stereo unspecified), in the data set filed under Homo sapiens, the Ratio IC50 is over 33. Further, in data set [1], the inhibition (in general, the share of the control response that was lost under treatment) at 100 µM was 40%. It took 3040 nM to reach half-maximal inhibition in [2] (IC50).

`CN1N=C(c2ccc(O)cc2)CC1c1ccccc1Cl` (stereo unspecified): the values for the IC50 in [3] and in data set [2] were 11800 nM and 10400 nM, respectively. Also, the Ratio IC50 in the data set filed under Homo sapiens is 1.1.

For the compound `Cc1ccc(C2CC(c3ccccc3)=NN2C)cc1` (stereo unspecified), the Ratio IC50 was at least 2 in data set [4]; at least 2 in data set [5]; “<= 2” in data set [6]; 145 in the data set filed under Homo sapiens; “<= 2” in data set [7]; “<= 2” in [8]. In addition, the “Ratio IC50” value in data set [9] is reported as “<= 2”. Further, the IC50 (as a rule, the concentration needed to halve the response being measured) came out at 1390 nM in data set [3] and 9.6 nM in data set [2].

With `CN1N=C(c2ccccc2)CC1c1cccc(Cl)c1` (stereo unspecified), the IC50 stood at 51000 nM in data set [3] and 840 nM in [2]. Moreover, the Ratio IC50 in the data set filed under Homo sapiens was found to be 61.

Take `CN1N=C(c2ccc(O)cc2)CC1c1cccc(Cl)c1` (stereo unspecified): the half-inhibitory concentration (IC50) came to 18700 nM in [3] and 2070 nM in data set [2]. In addition, the Ratio IC50 in the data set listed under Homo sapiens came out at 9.

With `Cc1ccccc1C1CC(c2ccc(O)cc2O)=NN1C` (stereo unspecified), the IC50 in [3] is 3980 nM; in data set [2] it was 2040 nM. The Ratio IC50 in the data set listed under Homo sapiens was determined as 1.9.

In the case of `CN1N=C(c2ccccc2)CC1c1ccc(F)cc1` (stereo unspecified), the IC50 in [3] is 3000 nM; in data set [2], 140 nM. Moreover, in the data set listed under Homo sapiens, the Ratio IC50 was 21.

For `CN1N=C(c2ccc(O)cc2O)CC1c1ccccc1` (stereo unspecified), the inhibition at 100 µM in data set [1] and in [10] was 40% throughout.

In the case of `Cc1ccc(C2CC(c3ccc(O)cc3)=NN2C)cc1` (stereo unspecified), the half-inhibitory concentration (IC50) in data set [3] was found to be 9130 nM; in [2], 1910 nM. Besides, the Ratio IC50 in the data set listed under Homo sapiens was 4.8.

With `CN1N=C(c2ccc(O)cc2)CC1c1cccc(F)c1` (stereo unspecified), in the data set filed under Homo sapiens, the Ratio IC50 is over 31. In addition, the inhibition at 100 µM in data set [1] was found to be 40%. Also, it took 3170 nM to reach half-maximal inhibition in data set [2] (IC50).

With `CN1N=C(c2ccccc2)CC1c1ccccc1F` (stereo unspecified), the IC50 in [3] is 2840 nM; in data set [2], 280 nM. In addition, the Ratio IC50 in the data set filed under Homo sapiens turned out to be 10.

As for `Cc1ccc(C2CC(c3ccc(O)cc3O)=NN2C)cc1` (stereo unspecified), the inhibition at 100 µM in data set [1] and in data set [10] was 40% throughout.

For the compound `CN1N=C(c2ccccc2)CC1c1ccccc1Cl` (stereo unspecified), the Ratio IC50 in the data set listed under Homo sapiens was over 27. In addition, the “inhibition (INH)” value in [1] is reported as “Not Active”. Also, the IC50 in data set [2] was found to be 3650 nM.

With `Cc1ccccc1C1CC(c2ccccc2)=NN1C` (stereo unspecified), the IC50 stood at 3260 nM in data set [3] and 110 nM in [2]. Also, the Ratio IC50 in the data set filed under Homo sapiens was determined as 30.

For the compound `CN1N=C(c2ccc(O)cc2)CC1c1ccccc1` (stereo unspecified), the Ratio IC50 in the data set listed under Homo sapiens is over 3.7. For the same compound, in data set [1], the inhibition at 100 µM turned out to be 40%. The compound further yielded an IC50 in data set [2] of 26800 nM.

`CN1N=C(c2ccc(O)cc2O)CC1c1ccccc1Cl` (stereo unspecified): the IC50 in data set [3] was 1100 nM; in data set [2], 300 nM. Further, the Ratio IC50 in the data set listed under Homo sapiens worked out at 3.7.

For the compound `CN1N=C(c2ccccc2)CC1c1ccccc1` (stereo unspecified), the half-maximal inhibitory concentration (IC50) was found to be 1680 nM in [3] and 120 nM in [2]. For the same compound, in the data set listed under Homo sapiens, the Ratio IC50 was found to be 14.

Regarding `Cc1cccc(C2CC(c3ccc(O)cc3O)=NN2C)c1` (stereo unspecified), the inhibition at 100 µM in data set [1] and in data set [10] was 40% throughout.

On to `CN1N=C(c2ccc(O)cc2O)CC1c1ccc(F)cc1` (stereo unspecified), for which the IC50 in data set [3] came out at 810 nM.

With `CN1N=C(c2ccc(O)cc2O)CC1c1cccc(Cl)c1` (stereo unspecified), the IC50 was 420 nM in data set [3] and 180 nM in data set [2]. Moreover, the Ratio IC50 in the data set filed under Homo sapiens was 2.3.

On to `CN1N=C(c2ccccc2)CC1c1cccc(F)c1` (stereo unspecified), for which the IC50 in data set [3] is 1820 nM; in data set [2], 60 nM. Moreover, the Ratio IC50 in the data set filed under Homo sapiens amounted to 30.

Take `Cc1cccc(C2CC(c3ccccc3)=NN2C)c1` (stereo unspecified): the Ratio IC50 in the data set listed under Homo sapiens is over 909. Further, the inhibition at 100 µM in [1] is 40%. Besides, the IC50 in data set [2] was determined as 110 nM.

For `CN1N=C(c2ccc(O)cc2O)CC1c1ccc(Cl)cc1` (stereo unspecified), the IC50 in data set [3] was 1390 nM; in data set [2] it was 340 nM. The Ratio IC50 in the data set listed under Homo sapiens worked out at 4.1.

Turning to `CN1N=C(c2ccc(O)cc2)CC1c1ccc(Cl)cc1` (stereo unspecified), the IC50 in [3] was 12700 nM; in [2], 2640 nM. Moreover, the Ratio IC50 in the data set filed under Homo sapiens amounted to 4.8.

On to `Cc1ccccc1C1CC(c2ccc(O)cc2)=NN1C` (stereo unspecified), for which the IC50 in [3] amounted to 21900 nM; in data set [2] it was 20100 nM. The Ratio IC50 in the data set listed under Homo sapiens is 1.1.

Regarding `CN1N=C(c2ccc(O)cc2O)CC1c1ccccc1F` (stereo unspecified), the Ratio IC50 in the data set filed under Homo sapiens was over 26. Further, the inhibition at 100 µM in data set [1] was determined as 40%. In addition, inhibition in data set [2] was half-maximal at 3870 nM (IC50).

For the compound `CN1N=C(c2ccc(O)cc2)CC1c1ccc(F)cc1` (stereo unspecified), the Ratio IC50 in the data set listed under Homo sapiens was over 27. Moreover, the inhibition at 100 µM in data set [1] was found to be 40%. Further, inhibition in data set [2] was half-maximal at 3650 nM (IC50).

In the case of `Cc1cccc(C2CC(c3ccc(O)cc3)=NN2C)c1` (stereo unspecified), the figures for the IC50 in [3] and in data set [2] were 16300 nM and 5780 nM, respectively. Further, the Ratio IC50 in the data set listed under Homo sapiens was found to be 2.8.

On to `O=C(NCCN1CCOCC1)c1ccc(Cl)cc1` [MOCLOBEMIDE], for which the “inhibition (INH)” value in [10] is listed as “Not Active”.

For `CN1N=C(c2ccccc2)CC1c1ccc(Cl)cc1` (stereo unspecified), in the data set listed under Homo sapiens, the Ratio IC50 was over 25. In addition, the “inhibition (INH)” value in data set [1] was “Not Active”. In data set [2], this compound came in with an IC50 of 3950 nM.

Consider `CN1N=C(c2ccc(O)cc2O)CC1c1cccc(F)c1` (stereo unspecified), for which the “inhibition (INH)” value in data set [1] and in data set [10] was “Not Active” in each case.

The record behind these values is ChEMBL document CHEMBL2417365, “Design, synthesis, and in vitro hMAO-B inhibitory evaluation of some 1-methyl-3,5-diphenyl-4,5-dihydro-1H-pyrazoles” (Bioorg Med Chem Lett, 2013).
